# System: Plasmodium falciparum
# Experiment: GSK_TCMDC: Inhibition of Plasmodium falciparum 3D7 in whole erythrocytes, using parasite LDH activity as an index of growth.
# Type: functional, organism-based
# Conditions: Plasmodium falciparum, 3D7
row,SMILES,XC50 [nM]
1,O=C(Nc1ccccc1)N(Cc1cccc(-c2ccc(CNC3CCCC3)cc2)c1)C1CCN(Cc2ccccc2)CC1,394
2,O=C(/C=C/c1ccc(Cl)c(Cl)c1)NCCC1CCC(N2CCC(c3c[nH]c4ccccc34)CC2)CC1 (centres undefined),197
3,CC(=O)c1ccc(NC(=O)CSc2nc(-c3ccccc3Cl)ns2)cc1,1130
4,CCN1CCN(CCCNc2ccnc3cc(Cl)ccc23)CC1,67
5,CC[C@H]1CN2CC[C@@H]1C[C@H]2[C@H](O)c1cc(-c2cccnc2)nc2ccc(OC)cc12,37.9
6,CCC1(CC)NC(N)=NC(=N)N1OCc1ccc(Cl)c(Cl)c1,58.5
7,N#Cc1ccc(C(=O)Nc2cc(-c3cccc(O)c3)cc3[nH]ncc23)cc1,1370
8,Cc1cc(NCCc2ccccc2)nc(NC(=N)Nc2ccc(Cl)cc2)n1,232
9,O=[N+]([O-])c1ccc(Oc2c(Cl)cc(S(=O)(=O)NC3CCC(CN4CCC(c5c[nH]c6ccccc56)CC4)CC3)cc2Cl)c(Cl)c1 (centres undefined),758
10,Cc1nnsc1C(=O)Nc1ccc(-c2ccc(-c3nc4cccc(C)c4[nH]3)s2)cc1,594
11,Cc1cccc(C(=O)Nc2ccnc(N3CCC(N(C)Cc4ccc(C#N)cc4)CC3)c2)c1,912
12,CSc1ccc(NC(=O)Nc2cc(C)nc3ccccc23)cc1Br,778
13,CC(C)(C)NCCN(Cc1ccc(-c2ccc(C(F)(F)F)cc2)cc1)C(=O)Cn1c(CCc2cccc(F)c2F)nc(=O)c2ccccc21,764
14,CCC(C)(C)c1ccc2nc(N)nc(N)c2c1C,5.21
15,COc1cccc(CNC(=O)c2cccc(-c3cccc(CN4CCC(N5CCCC5)CC4)c3)n2)c1,1030
16,CCN(CC)/C(=N/C(=N)Nc1ccc(Cl)c(Cl)c1)NCCCCCCN/C(=N\C(=N)Nc1ccc(Cl)c(Cl)c1)N(CC)CC,761
17,OC(CNCc1ccccc1Oc1ccccc1)c1cccc(C(F)(F)F)c1 (centres undefined),713
18,COc1ccc(Cn2c(=O)[nH]c3cc(C(=O)NC4CCN(Cc5ccccc5)CC4)ccc3c2=O)cc1,751
19,CCOC(=O)C(CO)NC(=O)c1ccc([N+](=O)[O-])o1 (centres undefined),289
20,Cc1cccc2nc(-c3cccc(-c4cccc(NC(=O)Cc5c[nH]cn5)c4)c3)[nH]c12,675
21,Cc1cc(NCCC(=O)NCc2cccc(F)c2)nc(Nc2ccccc2)n1,1050
22,CCCCc1nc2nc(N)nc(N)c2cc1CCC,308
23,CCC(O)(C#Cc1c(C)nc(N)nc1N)CC,639

row,SMILES,XC50 [nM]
1,CN(C)c1ccnc2ccc(NC(=O)Nc3ccnc4ccccc34)cc12,133
2,COc1ccc(C(=O)CC(=O)c2ccc(OC)cc2OC)c(OC)c1,300
3,CCCc1cc(C)ccc1OCCCON1C(NC(=O)OCC)=NC(NC(=O)OCC)=NC1(C)C,35.9
4,CCC(NC[C@@H](O)[C@H](Cc1ccccc1)NC(=O)c1cc(C2CCCC2)cc(N2CCCC2=O)c1)c1cccc(Cl)c1 (some centres undefined),35.2
5,Cc1ccc(NC(=O)c2ccc(CN3CCCN(CC4CCCCC4)CC3)cc2)cc1,797
6,Cc1cnc(CN(Cc2ccc(-c3ccc(CNCCc4ccc(S(C)(=O)=O)cc4)cn3)cc2)C(=O)c2ccc([N+](=O)[O-])c(C)c2)cn1,919
7,Cc1ccc(CON2C(N)=NC(N)=NC23CCCCC3)c2ccccc12,72.6
8,Cc1cccc2nc(-c3ccc(-c4ccc(CN5CCCC(O)C5)cc4)cc3)[nH]c12 (centres undefined),859
9,O=C(Nc1ccc(C(=O)Oc2cccc3ccccc23)cc1)N[C@@H](Cc1ccc(O)cc1)C(=O)NC1CCN(Cc2ccc(O)cc2)C1 (some centres undefined),906
10,CCCCNc1c(CC)c(C)c(C#N)c2nc3ccccc3n12,385
11,O=C(CSc1ccc(Cl)cc1)NC1CCC(CN2CCC(c3c[nH]c4ccccc34)CC2)CC1 (centres undefined),934
12,O=S(=O)(NC1CCN(c2ccnc3cc(Cl)ccc23)C1)c1cccc(F)c1 (centres undefined),486
13,O=C(Nc1cccc(-c2nn3ccccc3c2-c2ccnc(Nc3ccccc3)n2)c1)c1cc(F)ccc1F,953
14,CN(C(=O)Nc1ccc(C(F)(F)F)cc1)C1CCN(CCCCCNC(=O)/C=C/c2ccc(Cl)c(Cl)c2)CC1,330
15,Cc1cc(CN2CCN(CCOC(c3ccccc3)c3ccccc3)CC2)ccc1O,935
16,CC(C)[C@H](NC(=O)c1ccc(O)c(-c2ccc(Cl)c(Cl)c2)c1)C(=O)NCCN1CCCCC1,339
17,Cc1nn(-c2ccccc2)c2sc(C(=O)N(CCCN(C)C)c3nc(-c4ccccc4)cs3)cc12,981
18,Cc1cc(CN2CC[C@H](NC(=O)c3ccc(Cl)c(Cl)c3)C2)ccc1OCCCN(C)C,842
19,O=C1Nc2cccc3c2C1(CCCCN1CCC(c2c[nH]c4cc(C(F)(F)F)ccc24)CC1)CCC3 (centres undefined),715
20,O=c1cc(NCCC(CNCc2cc3ccccc3o2)NCc2cc(Br)cc(Br)c2)[nH]c2ccccc12 (centres undefined),1210
21,COc1cc(Cc2cnc(N)nc2N)cc(OC)c1OC [TRIMETHOPRIM],755
22,CSc1cccc(Nc2nc3ccc(S(=O)(=O)NCC(C)C)cc3n2C(C)C(C)C)c1 (centres undefined),824
23,CN(c1ccc2c(c1)nc(NCc1ccccc1)n2C)c1ccnc(Nc2ccc(CS(C)(=O)=O)cc2)n1,841

row,SMILES,XC50 [nM]
1,CN1CCCC1CCNCc1ccc(-c2ccc(CNCCc3ccccc3)cn2)cc1 (centres undefined),1110
2,CCN(CC)CCN1C(=O)C(O)(c2ccccc2Cl)c2c1cc(C(N)=O)cc2C(F)(F)F (centres undefined),703
3,CC(Cc1ccc(OCCCCOc2ccccc2)cc1)NCCC1CCCN1C (centres undefined),39.7
4,CC(C)(C)OC(=O)[C@H](CC(N)=O)NC(=O)c1ccc(-c2ccc(-c3nc4cc(C(F)(F)F)ccc4[nH]3)s2)cc1,271
5,COc1ccccc1NC(=O)CSc1nc2cccnc2n1-c1ccccc1OC,362
6,COc1ccc(NC(=O)c2ccc(Br)c(C)c2)cc1N1CCN(Cc2ccccc2)CC1,918
7,Cc1ccc(NC(=O)NC2CCN(CCCCCNC(=O)/C=C/c3ccc(Cl)c(Cl)c3)CC2)cc1C,733
8,O=C(Nc1ccccc1)Nc1cccc(-c2ccc(-c3nc4cc(C(F)(F)F)ccc4[nH]3)cc2)c1,231
9,Clc1ccc(-c2cc3c(NCc4ccncc4)nccc3s2)cc1,852
10,CC[C@H]1CN2CC[C@H]1C[C@H]2[C@H](O)c1ccnc2ccc(OC)cc12,154
11,COc1ccc(-c2cccc(NC(=O)c3cccc(C#N)c3)c2)cc1CNC(C)C,694
12,COc1ccc2[nH]c(C)cc(=NN=Cc3cccc(Cl)c3)c2c1,632
13,Cn1nc(C(F)(F)F)cc1-c1ccc(C(=O)Nc2ccc3c(c2)CNCC3(C)C)s1,1010
14,CCC1CN2CCc3c([nH]c4ccc(OC)cc34)C2CC1CC1NCCc2cc(OC)c(OC)cc21 (centres undefined),862
15,CS(=O)(=O)N1CC2(CCN(CCC(NC(=O)NCc3ccc(Cl)c(Cl)c3)c3ccc(Cl)c(Cl)c3)CC2)c2ccccc21 (centres undefined),799
16,N=C(N)c1ccc(C=CC(=O)NCC(O)CNC(=O)C=Cc2ccc(C(=N)N)cc2)cc1 (centres undefined),31.4
17,CC(=O)CC(=O)N1CCN(c2ccccc2)CC1,1060
18,COc1cc(/C=C/C(=O)NC2CCC(N3CCC(c4ccccc4C)CC3)CC2)cc(OC)c1 (centres undefined),979
19,OC[C@H]1CCCN1CC#Cc1cc2c(Nc3ccc(OCc4cccc(F)c4)c(Cl)c3)ncnc2s1,1210
20,CCCCN1CCCN(Cc2cccc(NC(=O)c3ccc(-c4ccccc4)cc3)c2)CC1,1030
21,c1cc2[nH]c(CCc3nc4cc(C5=NC6CCCCC6N5)ccc4[nH]3)nc2cc1C1=NC2CCCCC2N1 (centres undefined),230
22,COc1ccc2nccc([C@H](O)CN3CCC(NCc4nc5cccc(F)c5[nH]4)CC3)c2c1,705
23,CC[C@H](C)CNC(=O)c1cccc(-c2ccc(CN3CCC(N4CCCC4)CC3)cc2)n1,788

# Reference: ChEMBL document CHEMBL1157539, “Thousands of chemical starting points for antimalarial lead identification” (Nature, 2010)
